Experimental data from US20240316164A1, “ENHANCED EXPRESSION OF AN AROMATIC AMINO ACID DECARBOXYLASE (AADC) IN THE SUBSTANTIA NIGRA FOR THE TREATMENT OF PARKINSON'S DISEASE” (Northwestern University, priority 2021, published 2024).
Entries after “also recorded” stand apart in the source; their conditions may differ.

Legend:
[1] = test system: cNdufs2−/− mice; experiment: Y maze associative learning test; type: in vivo, mouse; conditions: systemic levodopa 6 mg/kg, P30
Description: (§1) FIG. 4. cNdufs2^−/− mice manifest a progressive, levodopa-responsive Parkinsonism. a, Schematic diagram of the experimental protocol for Y maze test. […] Local electrical stimulation (350 μA, 2 ms) was used to evoke release. […] By P30, cNdufs2^−/− mice took longer (N=10-13 per group). e, Open-field traces in wildtype and cNdufs2^−/− mice at P30 and P100. f, Number of pauses during open field test in wildtype and cNdufs2^−/− mice. […] N=12-27per group. h-m, Gait analysis procedure and measurement schematics. h, Pictures of wildtype and cNdufs2^−/− mice footprints with representations of measurements of RF (Right Fore). RH (Right Hind). […] Box plots represent stride length in right hind paw at P100 (N=7 per group). m, Boxplots indicate swing duration in right hind paw. […] Kruskal-Wallis test: (b), (d), (f) and (g). ***P<0.001. 2-way ANOVA followed by Tukey's post hoc test (c). *P<0.05; **P<0.01; 1-way ANOVA followed by Tukey's post hoc test (i), (j), (l) and (m). Data are presented as box-and-whisker plots depicting median, quartiles, and range (b), (c), (i), (j), (l) and (m) or median and range (shaded area); (d), (f) and (g).
Unlike conventional PD models in which DA is depleted rapidly throughout the basal ganglia, the staging of pathology in cNdufs2^−/− mice allowed an assessment of how regional deficits in DA release are coupled to behavior. […]

[2] = test system: cNdufs2−/− mice; experiment: Adhesive removal test; type: in vivo, mouse; conditions: regardless of age
Description: as §1
By P40, open-field, exploratory behavior of cNdufs2″ mice began to be interrupted by brief pauses, although the total distance traveled in the testing period was normal (FIGS. 4e-g). […]

[3] = test system: cNdufs2−/− mice; experiment: Open field test; type: in vivo, mouse
[4] = test system: cNdufs2−/− mice; experiment: Rearing test; type: in vivo, mouse; conditions: levodopa 3 mg/kg, P20-P120
Description: (§2) FIG. 21. Behavioral phenotypes in cNdufs2^−/− mice. (a) Rearing test performance. b. […] Number of rearings begin to be impaired at P40. […] At P60, cNdufs2^−/− mice show difficulty transitioning between rearing and landing, spending much more time ‘stuck’ in an elevated posture. […] P60 and P100. […] P60 and P100. […] P60 and P100. […] P60 and P100. […] 1. […] P60 and P100. […] P60 and P100. […] P60 and P100. […] Kruskal-Wallis test: (b), and (c). *P<0.05; **P<0.01; 1-way ANOVA followed by Tukey's post hoc test: (h-o). Data are presented as median and range (shaded area).
By P40, open-field, exploratory behavior of cNdufs2″ mice began to be interrupted by brief pauses, although the total distance traveled in the testing period was normal (FIGS. 4e-g). Later, open-field behavior of cNdufs2^−/− mice became progressively more impaired and total distance traveled began to fall (FIG. 4g). […] Another common exploratory behavior of mice involves rearing. When placed in a tall glass cylinder, mice rear, land and rear again in a different part of the cylinder; in a 3-minute period, mice typically rear and land 15-20 times. At P30, rearing behavior of cNdufs2^−/− mice was normal, but by P60 cNdufs2^−/− mice appeared to have difficulty transitioning between rearing and landing, spending much more time ‘stuck’ in an elevated posture. […]

[5] = test system: cNdufs2−/− mice; experiment: Gait analysis on treadmill; type: in vivo, mouse
Description: as §1, §2
However, by P100, cNdufs2^−/− mice had splayed hindlimbs, abnormal paw placement and alterations in stride when forced to ambulate on the treadmill (FIG. 4h-m, FIG. 21h-o). […] Because cNdufs2^−/− mice manifest a clear, levodopa-responsive Parkinsonism that is attributable to MCI dysfunction, they are referred to as MCI-Park mice.

[6] = test system: SN dopaminergic neurons; experiment: Cytosolic ATP/ADP ratio with PercevalHR in ex vivo brain slice; type: cell-based, mouse; conditions: wildtype dopaminergic neurons, inhibition of mitochondrial complex V
Description: FIG. 1. Loss of Ndufs2 function triggers mitochondrial and genomic adaptations in SN DA Neurons. a, Schematic of a coronal section of the midbrain highlighting the sampled region of SNc (orange). b, Meta-analysis of RNAseq data obtained by Cre-dependent RiboTag mRNA precipitation from P40 wildtype mice. […] Scale bar: 10 μm. e, Representative TMRM fluorescence time series after the application of carboxyatractyloside, the adenine nucleotide transporter inhibitor (iANT). f, Box plots of TMRM after blocking ANT with carboxyatractyloside and depolarizing mitochondria with FCCP (wildtype, P40 n=8 (1 per section), 6 mice; cNdufs2^−/−, P20 n=4 (1 per section), 3 mice; P40 n=5 (1 per section), 4 mice)). g, Cartoon representing the activity of the ETC and ANT following Ndufs2 deletion. h, Electron micrographs of SN DA neurons. The nucleus and the mitochondria are highlighted in green and red, respectively. […] The percentage of abnormal mitochondria was calculated as the ration between the area occupied by abnormal mitochondria over the total area occupied by mitochondria for each cell. […] Scale bar: 15 μm. p, Representative time-lapse measurements of Perceval-HR fluorescence ratio. […]

[7] = levodopa 6 mg/kg, P30, P60 and P100

Compound	associative learning (memory) task, percentage of correct choices [1]	adhesive removal speed [2]	number of pauses during open field test ([3]; cNdufs2−/− mice, levodopa 3 mg/kg)	open-field performance (pauses, total distance traveled) ([3]; cNdufs2−/− mice, levodopa treatment)	open-field ambulation ([3]; control MCI-Park mice without AADC, low systemic levodopa dose 1.5 mg/kg, ~P100, 1.5 mg/kg)	number of rearings in a 3-minute period [4]	rearing time [4]	gait deficits (splayed hindlimbs, abnormal paw placement, alterations in stride) ([5]; P100)	swing duration in right hind paw ([5]; levodopa 6 mg/kg)	brake duration in right hind paw [5, 7]	propulsion time in right hind paw [5, 7]	step sequence in right hind paw [5, 7]	stride frequency in right hind paw [5, 7]	hind limb stance width ([5]; levodopa 6 mg/kg, P100)	paw area in right hind paw ([5]; levodopa 6 mg/kg, P100)	stance duration in right hind paw ([5]; levodopa 6 mg/kg, P100)	cytosolic ATP/ADP ratio (ATP levels) [6]
N[C@@H](Cc1ccc(O)c(O)c1)C(=O)O [levodopa]	restored	improved adhesive removal speed regardless of age	rescued this deficit	improved performance in this task	had no discernible effect	did not rescue this deficit	did not lessen this deficit; also recorded: did not rescue this deficit	ameliorated some, but not all of these deficits	not rescued	did not rescue this phenotype	did not rescue this phenotype	did not rescue this phenotype	did not rescue this phenotype	rescued this phenotype	rescued this phenotype at P100	rescued this phenotype at P100	
CC[C@H]1/C=C/C=C/C[C@@H](C)[C@H](O)[C@@](C)(O)C(=O)[C@@H](C)[C@H](O)[C@@H](C)C(=O)[C@@H](C)[C@H](O)[C@@H](C)/C=C/C(=O)O[C@@H]2[C@H](C)[C@H](CC1)O[C@]1(CC[C@H](C)[C@H](C[C@@H](C)O)O1)[C@H]2C [oligomycin]																	caused a precipitous drop in ATP levels
